How the values were obtained:
[1] = target: T1, Heat shock protein HSP90 (Homo sapiens) (UniProt P07900+P08238); experiment: Inhibition of HSP90 in human MCF7 cells assessed as induction of mitochondrial membrane potential loss by measuring cell population with intact mitochondrial membrane potential at 10 uM after 24 hrs by JC1 staining-based flow cytometry analysis (reference value: 92.39 %); design: scale not given: the % may be the effect or the level left
[2] = target: T1, Heat shock protein HSP90 (Homo sapiens); experiment: Inhibition of HSP90 in human MCF7 cells assessed as induction of apoptosis by measuring total apoptotic and dead cell population at 0.5 to 4 uM measured after 24 hrs by annexinV-FITC/propidium iodide staining based flow cytometry; conditions: dose microM 0.5-4, time 24.0 hrs
[3] = target: T1, Heat shock protein HSP90 (Homo sapiens); experiment: Inhibition of HSP90 in human MCF7 cells assessed as cell cycle arrest by measuring accumulation at S phase at 2.5 uM measured after 24 hrs by RNaseA/propidium iodide staining based flow cytometric analysis (reference value: 7.08 %); design: scale not given: the % may be the effect or the level left
[4] = target: T1, Heat shock protein HSP90 (Homo sapiens); experiment: Inhibition of HSP90 in human MCF7 cells assessed as cell cycle arrest by measuring accumulation at G2/M phase at 10 uM measured after 24 hrs by RNaseA/propidium iodide staining based flow cytometric analysis (reference value: 25.08 %); design: scale not given: the % may be the effect or the level left
[5] = target: T1, Heat shock protein HSP90 (Homo sapiens); experiment: Inhibition of HSP90 in human MCF7 cells assessed as induction of mitochondrial membrane potential loss by measuring cell population with mitochondrial membrane potential collapse at 2.5 to 10 microM after 24 hrs by JC1 staining-based flow cytometry analysis; conditions: dose microM 2.5-10, time 24.0 hrs
[6] = target: T1, Heat shock protein HSP90 (Homo sapiens); experiment: Inhibition of HSP90 in human MCF7 cells assessed as induction of apoptosis by measuring live cells at 2.5 uM measured after 24 hrs by annexinV-FITC/propidium iodide staining based flow cytometry (reference value: 90.77 %); format: cell-based; design: scale not given: the % may be the effect or the level left
[7] = target: T1, Heat shock protein HSP90 (Homo sapiens); experiment: Inhibition of HSP90 in human MCF7 cells assessed as induction of apoptosis by measuring early apototic cells at 10 uM measured after 24 hrs by annexinV-FITC/propidium iodide staining based flow cytometry (reference value: 1.31 %); format: cell-based; design: scale not given: the % may be the effect or the level left
[8] = target: T1, Heat shock protein HSP90 (Homo sapiens); experiment: Inhibition of HSP90 in human MCF7 cells assessed as induction of mitochondrial membrane potential loss by measuring cell population with mitochondrial membrane potential collapse at 10 uM after 24 hrs by JC1 staining-based flow cytometry analysis (reference value: 6.53 %); design: scale not given: the % may be the effect or the level left
[9] = target: T1, Heat shock protein HSP90 (Homo sapiens); experiment: Inhibition of HSP90 in human MCF7 cells assessed as induction of apoptosis by measuring necrotic cells at 2.5 uM measured after 24 hrs by annexinV-FITC/propidium iodide staining based flow cytometry (reference value: 0.01 %); format: cell-based; design: scale not given: the % may be the effect or the level left
[10] = target: T1, Heat shock protein HSP90 (Homo sapiens); experiment: Inhibition of HSP90 in human MCF7 cells assessed as induction of apoptosis by measuring late apototic cells at 5 uM measured after 24 hrs by annexinV-FITC/propidium iodide staining based flow cytometry (reference value: 7.91 %); format: cell-based; design: scale not given: the % may be the effect or the level left
[11] = target: T1, Heat shock protein HSP90 (Homo sapiens); experiment: Inhibition of HSP90 in human MCF7 cells assessed as induction of apoptosis by measuring necrotic cells at 10 uM measured after 24 hrs by annexinV-FITC/propidium iodide staining based flow cytometry (reference value: 0.01 %); format: cell-based; design: scale not given: the % may be the effect or the level left
[12] = target: T1, Heat shock protein HSP90 (Homo sapiens); experiment: Inhibition of HSP90 in human MCF7 cells assessed as induction of mitochondrial membrane potential loss by measuring cell population with mitochondrial membrane potential collapse at 5 uM after 24 hrs by JC1 staining-based flow cytometry analysis (reference value: 6.53 %); design: scale not given: the % may be the effect or the level left
[13] = target: T1, Heat shock protein HSP90 (Homo sapiens); experiment: Inhibition of HSP90 in human MCF7 cells assessed as induction of apoptosis by measuring late apototic cells at 2.5 uM measured after 24 hrs by annexinV-FITC/propidium iodide staining based flow cytometry (reference value: 7.91 %); format: cell-based; design: scale not given: the % may be the effect or the level left
[14] = target: T1, Heat shock protein HSP90 (Homo sapiens); experiment: Inhibition of HSP90 in human MCF7 cells assessed as cell cycle arrest by measuring accumulation at Sub-G1 phase at 10 uM measured after 24 hrs by RNaseA/propidium iodide staining based flow cytometric analysis (reference value: 3.75 %); design: scale not given: the % may be the effect or the level left
[15] = target: T1, Heat shock protein HSP90 (Homo sapiens); experiment: Inhibition of HSP90 in human MCF7 cells assessed as induction of nuclear morphological changes by measuring nuclear fragmentation at 2.5 to 10 uM by DAPI staining based fluorescence microscopy analysis; format: cell-based; conditions: dose microM 2.5-10
[16] = target: T1, Heat shock protein HSP90 (Homo sapiens); experiment: Inhibition of HSP90 in human MCF7 cells assessed as induction of apoptosis by measuring early apototic cells at 2.5 uM measured after 24 hrs by annexinV-FITC/propidium iodide staining based flow cytometry (reference value: 1.31 %); format: cell-based; design: scale not given: the % may be the effect or the level left
[17] = target: T1, Heat shock protein HSP90 (Homo sapiens); experiment: Inhibition of HSP90 in human MCF7 cells assessed as induction of apoptosis by measuring live cells at 10 uM measured after 24 hrs by annexinV-FITC/propidium iodide staining based flow cytometry (reference value: 90.77 %); format: cell-based; design: scale not given: the % may be the effect or the level left
[18] = target: T1, Heat shock protein HSP90 (Homo sapiens); experiment: Inhibition of HSP90 in human MCF7 cells assessed as cell cycle arrest by measuring accumulation at Sub-G1 phase at 2.5 uM measured after 24 hrs by RNaseA/propidium iodide staining based flow cytometric analysis (reference value: 3.75 %); design: scale not given: the % may be the effect or the level left
[19] = target: T1, Heat shock protein HSP90 (Homo sapiens); experiment: Inhibition of HSP90 in human MCF7 cells assessed as induction of mitochondrial membrane potential loss by measuring cell population with mitochondrial membrane potential collapse at 2.5 uM after 24 hrs by JC1 staining-based flow cytometry analysis (reference value: 6.53 %); design: scale not given: the % may be the effect or the level left
[20] = target: T1, Heat shock protein HSP90 (Homo sapiens); experiment: Inhibition of HSP90 in human MCF7 cells assessed as cell cycle arrest by measuring accumulation at G0/G1 phase at 10 uM measured after 24 hrs by RNaseA/propidium iodide staining based flow cytometric analysis (reference value: 39.10 %); design: scale not given: the % may be the effect or the level left

Activity [1]: 46% | inhibition [2]: Dose-dependent effect | Activity [3]: 7.74% | Activity [4]: 20.1% | inhibition [5]: Dose-dependent effect | Activity [6]: 87.9% | Activity [7]: 4.11% | Activity [8]: 53% | Activity [10]: 18.6% | Activity [12]: 21.8% | Activity [13]: 10.1% | Activity [14]: 23.7% | inhibition [15]: Dose-dependent effect | Activity [16]: 1.94% | Activity [17]: 62.3% | Activity [18]: 6.27% | Activity [19]: 12.7% | Activity [20]: 25.2%
SMILES: Nc1nc(-c2ccc(Br)cc2)cc(-c2cn(-c3ccc(Cl)cc3)nc2-c2ccc([N+](=O)[O-])cc2)n1
Activity [9]: 0.07% | Activity [11]: 0.12%

— ChEMBL document CHEMBL4725367, “Novel anticancer Hsp90 inhibitor disubstituted pyrazolyl 2-aminopyrimidine compound 7t induces cell cycle arrest and apoptosis via mitochondrial pathway in MCF-7 cells” (Bioorg Med Chem Lett, 2020)
